Usually logP stands for the decadic logarithm of the partition coefficient of the neutral form, usually between octanol and water. A lower logP goes with lower lipophilicity.

Here are results for 28 compounds from US4952589A, “Pyridine compounds” (priority 1984, dated 1990).

Read-outs that look alike come from different tables or passages of the source.

One data set concerns the target T1, histamine H2 -receptor (Cavia porcellus, UniProt P47747).
T1 construct: a spontaneously beating isolated portion of the guinea pig right atrium; from tissue; host or cells: guinea pig right atrium
Kind of data set: Inhibition of histamine-induced tachycardia in the isolated guinea-pig right atrium. The class given is cell-based. The procedure: In the guinea pig atrium test a spontaneously beating isolated portion of the guinea pig right atrium is secured under tension (300 mg) between an anchorage and a transducer in a 15 ml tissue bath and immersed in McEwens solution with constant aeration at a temperature of 37° C. The output from the transducer is amplified. Output is in turn fed to a flat bed recorder. Measured amounts of histamine are added to the tissue bath so that the histamine concentration increases step-wise until the rate of beating reaches a maximum. The tissue bath is washed out and filled with fresh McEwens solution containing compound under test. The solution is left in contact with the tissue for 60 min. and measured amounts of histamine are added again until a maximum rate is recorded. The assay is repeated with increasing concentrations of test compound and the dose of histamine giving 50% of maximum rate is noted. A dose ratio (DR) was calculated by comparing the concentrations of histamine required to produce 50% maximum response in the absence and in the presence of the antagonist. A plot of Log DR-1 against LOG D (the concentration of compound under test) is made and the point of intersection with the Log (DR-1) ordinate is taken as the measure of the activity (pA2 value).

For data set [1], the target named is T2, brain histamine H2 -receptor (Cavia porcellus, UniProt P47747).
T2 construct: from tissue; host or cells: guinea pig cerebral cortex membranes
T2 sequence (P47747 whole entry): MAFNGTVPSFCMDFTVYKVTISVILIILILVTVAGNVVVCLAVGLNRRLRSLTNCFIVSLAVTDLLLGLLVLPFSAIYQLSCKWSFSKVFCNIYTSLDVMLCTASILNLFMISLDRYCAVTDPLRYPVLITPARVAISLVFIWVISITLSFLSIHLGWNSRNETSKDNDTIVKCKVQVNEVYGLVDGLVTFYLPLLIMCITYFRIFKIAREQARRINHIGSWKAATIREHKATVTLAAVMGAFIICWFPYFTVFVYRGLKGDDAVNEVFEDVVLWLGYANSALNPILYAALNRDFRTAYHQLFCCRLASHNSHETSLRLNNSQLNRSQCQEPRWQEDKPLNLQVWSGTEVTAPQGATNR
Kind of data set: Inhibition of 3H-tiotidine binding to guinea pig cerebral cortex membranes.

The target in data set [2] is T2, brain histamine H2 -receptor. Kind of data set: Inhibition of dimaprit stimulated cyclic AMP accumulation in guinea pig hippocampal slices. In kind it is cell-based.
Data set [3] deals with leptazol-induced tonic extensor spasm. Kind of data set: Anticonvulsant activity: leptazol (pentylenetetrazol)-induced convulsions in mice. The class given is in vivo. The settings on record: subcutaneously, dose-dependent (stated for Examples 5 and 6).
In data set [4] the test system is maximal electroshock seizures. The data set can be described thus: Anticonvulsant activity: maximal electroshock seizures in mice. The settings on record: subcutaneously. The class given is in vivo. In general terms: Protection in the maximal electroshock model is a classic sign of anticonvulsant action.
The test system of data set [5] is pial artery dilatation induced by histamine. The data set can be described thus: Cat pial artery in situ: antagonism of dilatation induced by perivascularly applied histamine. In kind it is in vivo.
A short description of data set [6]: Δ log P (log P octanol/water minus log P cyclohexane/water).
The nature of the next data set: physchem. The settings on record: octanol/water.
A short description of data set [7]: Blood-brain barrier penetration in urethane-anaesthetised rats (radiolabelled compound, infusion). The settings on record: rat, intravenous bolus then infusion, approximately 2 μM blood concentrations, at least 2 hours; separate determinations.
Protocol: The levels of compound and inulin in the blood are monitored and the infusion maintained for at least 2 hours until equilibria (or at least approximate blood plateaux) are achieved. The rat is exsanguinated to minimise blood contamination of the brain. […] The tissues are weighed and then dissolved in a tissue solubiliser, e.g. Soluene-100 overnight at 37° C. in glass vials. […] Glacial acetic acid is added to each vial in order to neutralise the soluene and reduce chemiluminescence. Dimilume-30 (15 ml) is added as the scintillant and the vials left for 12 hours in the scintillation counter in order to further reduce chemiluminescence prior to counting for activity.
The test system of data set [8] is pial artery dilatation induced by histamine. The settings on record: cat, locally applied; Wahl & Kuschinsky; cited from earlier work.
In data set [9] the test system is bicuculline injection induced convulsions. The settings on record: mice; cited from earlier work.
Data set [10] concerns leptazol-induced tonic extensor spasm. The settings on record: mice; cited from earlier work.
Data set [11] deals with maximal electroshock seizures. The settings on record: mice; cited from earlier work.
Where [12] appears, read: isolated guinea pig right atrium, 37° C., 60 min contact, histamine agonist, read-out: pA2 (converted).
Setting [13] is: 3H-tiotidine, guinea pig cerebral cortex membranes, read-out: pKi cortex (converted).
Setting [14] is: dimaprit stimulated cyclic AMP accumulation, guinea pig hippocampal slices, read-out: pKi (converted).

T1 sequence (P47747 whole entry): as above

For the compound `c1cc(CN2CCCCC2)cc(OCCCNc2nc3ccccc3[nH]2)c1` [Description 1, 2-[3-[3-(Piperidinomethyl)phenoxy]propylamino]benzimidazole], at histamine H2 -receptor (setting [12]), the Kb was 63.1 nM. For the same compound, the results for the Ki in data set [1] (setting [13]) and in data set [2] (setting [14]) were 25.1 nM and 37.2 nM, respectively.

For `c1cc(CN2CCCCC2)cc(OCCCNc2nc3ccccc3o2)c1` [Example 1, 2-[3-[3-(Piperidinomethyl)phenoxy]propylamino]benzoxazole], in data set [3], the “doses protecting against leptazol-induced tonic extensor spasm” value is 10 to 100 mg/kg. Moreover, the “doses protecting against maximal electroshock seizures” value in data set [4] is 30 to 100 mg/kg. The Kb on histamine H2 -receptor (setting [12]) was 63.1 nM. The Ki in data set [1] (setting [13]) is 79.4 nM; in data set [2] (setting [14]), 21.9 nM.

Take `c1cc(CN2CCCCC2)cc(OCCCNc2ccc3ccccc3n2)c1` [Example 3, 2-[3-[3-(Piperidinomethyl)phenoxy]propylamino]quinoline]: the Kb at histamine H2 -receptor (setting [12]) is 631 nM. Further, the Ki in data set [1] (setting [13]) was 12.6 nM; in data set [2] (setting [14]) it was 10.7 nM.

Turning to `c1cnc(NCCCOc2cccc(CN3CCCCC3)c2)nc1` [Example 4, 2-[3-[3-(Piperidinomethyl)phenoxy]propylamino]pyrimidine], the Kb on histamine H2 -receptor (setting [12]) was 2000 nM. The Ki is 3160 nM in [1] (setting [13]) and 22900 nM in [2] (setting [14]).

Consider `c1cc(CN2CCCCC2)cc(OCCCNc2nc3ccccc3s2)c1` [Example 5, 2-[3-[3-(Piperidinomethyl)phenoxy]propylamino]benzthiazole], for which the “doses protecting against leptazol-induced tonic extensor spasm” value in data set [3] fell in the range of 10 to 30 mg/kg. The “doses protecting against maximal electroshock seizures” value in data set [4] is 30 to 100 mg/kg. At histamine H2 -receptor, the Kb is 25.1 nM. For the same compound, the “antagonism of pial artery dilatation induced by histamine” value in data set [5] (intravenous) and in data set [5] (locally applied) was “antagonised the pial artery dilatation” in each case. The “Δ log P” value in [6] stood at 1.74. Moreover, the Ki in data set [1] is 79.4 nM; in [2], 15.8 nM. The same compound showed a logP in the data set “physchem” of 1.46.

Consider `c1ccc(NCCCOc2cccc(CN3CCCCC3)c2)nc1` [Example 6, 2-[3-[3-(Piperidinomethyl)phenoxy]propylamino]pyridine], for which the “doses protecting against leptazol-induced tonic extensor spasm” value in [3] lay within 30 to 100 mg/kg. In addition, the “doses protecting against maximal electroshock seizures” value in [4] is 30 to 100 mg/kg. Besides, the Kb at histamine H2 -receptor (setting [12]) is 794 nM. Besides, the Ki in data set [1] (setting [13]) is 100 nM; in [2] (setting [14]), 56.2 nM. The logP in “physchem” was 2.88.

Turning to `COc1cccc(NCCCOc2cccc(CN3CCCCC3)c2)n1` [Example 7, 2-[3-[3-(Piperidinomethyl)phenoxy]propylamino]-6-methoxypyridine], the Kb on histamine H2 -receptor (setting [12]) was 794 nM. In addition, the Ki in data set [1] (setting [13]) is 501 nM.

For `CCOc1cc(NCCCOc2cccc(CN3CCCCC3)c2)nc2ccccc12` [Example 8, 2-[3-[3-(Piperidinomethyl)phenoxy]propylamino]-4-ethoxyquinoline], the Kb on histamine H2 -receptor (setting [12]) is 2000 nM. The Ki in data set [1] (setting [13]) is 200 nM.

As to `c1cc(CN2CCCCC2)cc(OCCCNc2nccs2)c1` [Example 9, 2-[3-[3-(Piperidinomethyl)phenoxy]propylamino]thiazole], the Kb on histamine H2 -receptor (setting [12]) was 39.8 nM. In addition, the Ki in data set [1] (setting [13]) and in data set [2] (setting [14]) was 63.1 nM in each case.

Consider `Cn1c(NCCCOc2cccc(CN3CCCCC3)c2)nc2ccccc21` [Example 10, 2-[3-[3-(Piperidinomethyl)phenoxy]propylamino]-1-methylbenzimidazole], for which the Kb at histamine H2 -receptor (setting [12]) was 7940 nM. For the same compound, the values for the Ki in data set [1] (setting [13]) and in data set [2] (setting [14]) were 31.6 nM and 2 nM, respectively.

As for `c1cncc(NCCCOc2cccc(CN3CCCCC3)c2)c1` [Example 11, 3-[3-[3-(Piperidinomethyl)phenoxy]propylamino]pyridine], the Ki in [1] (setting [13]) is 794 nM.

For `c1cc(CN2CCCCC2)cc(OCCCNc2nccc3ccccc23)c1` [Example 12, 1-[3-[3-(Piperidinomethyl)phenoxy]propylamino]isoquinoline], the Kb at histamine H2 -receptor (setting [12]) was 398 nM. Further, the Ki in data set [1] (setting [13]) is 39.8 nM.

As for `Cc1nc(NCCCOc2cccc(CN3CCCCC3)c2)sc1C` [Example 14, 2-[3-[3-(Piperidinomethyl)phenoxy]propylamino]-4,5-dimethylthiazole], the Kb at histamine H2 -receptor (setting [12]) was 2510 nM. Further, in data set [1] (setting [13]), the Ki is 126 nM.

In the case of `c1cc(CN2CCCCC2)cc(OCCNc2nc3ccccc3s2)c1` [Example 16, 2-[2-[3-(Piperidinomethyl)phenoxy]ethylamino]benzthiazole], the Kb on histamine H2 -receptor (setting [12]) was 6310 nM. Moreover, in [1] (setting [13]), the Ki is 794 nM.

Consider `c1cc(CN2CCCCC2)cc(OCCCCNc2nc3ccccc3s2)c1` [Example 17, 2-[4-[3-(Piperidinomethyl)phenoxy]butylamino]benzthiazole], for which the Kb on histamine H2 -receptor (setting [12]) was 126 nM. Moreover, the Ki in data set [1] (setting [13]) is 158 nM.

For `COc1cccnc1NCCCOc1cccc(CN2CCCCC2)c1` [Example 18, 2-[3-[3-(Piperidinomethyl)phenoxy]propylamino]-3-methoxypyridine], the Kb at histamine H2 -receptor (setting [12]) is 631 nM. Further, the Ki in data set [1] (setting [13]) was 39.8 nM.

On to `c1cc(CN2CCCCC2)cc(OCCCNc2ncnc3ccccc23)c1` [Example 19, 4-[3-[3-(Piperidinomethyl)phenoxy]propylamino]quinazoline], for which the Kb on histamine H2 -receptor (setting [12]) is 20 nM. Moreover, the Ki in data set [1] (setting [13]) was 25.1 nM.

Consider `CN(C)Cc1cccc(OCCCNc2nc3ccccc3s2)c1` [Example 21, 2-[3-[3-(Dimethylaminomethyl)phenoxy]propylamino]benzthiazole], for which, on histamine H2 -receptor (setting [12]), the Kb was 1260 nM. In data set [1] (setting [13]), the Ki is 631 nM.

`c1cc(CN2CCCC2)cc(OCCCNc2nc3ccccc3s2)c1` [Example 22, 2-[3-[3-(Pyrrolidinomethyl)phenoxy]propylamino]benzthiazole]: the Kb on histamine H2 -receptor (setting [12]) was 100 nM. In data set [1] (setting [13]), the Ki was 316 nM.

Regarding `c1cc(CN2CCCCCC2)cc(OCCCNc2nc3ccccc3s2)c1` [Example 23, 2-[3-[3-(Hexahydroazepinomethyl)phenoxy]propylamino]benzthiazole], the Kb at histamine H2 -receptor (setting [12]) was 316 nM. Besides, the Ki in data set [1] (setting [13]) was 1260 nM.

Turning to `Cc1cc2nc(NCCCOc3cccc(CN4CCCCC4)c3)sc2cc1C` [Example 24, 2-[3-[3-(Piperidinomethyl)phenoxy]propylamino]-5,6-dimethylbenzthiazole], the Kb on histamine H2 -receptor (setting [12]) is 25100 nM. Moreover, in [1] (setting [13]), the Ki was 398 nM.

Take `c1cc(CN2CCCCC2)cc(OCCc2c[nH]cn2)c1` [Example 25, 4(5)-[2-[3-(Piperidinomethyl)phenoxy]ethyl]imidazole]: the Kb at histamine H2 -receptor (setting [12]) was 25100 nM. In data set [1] (setting [13]), the Ki was 794 nM.

On to `c1cc(CN2CCCCC2)cc(OCCc2nc3ccccc3[nH]2)c1` [Example 26, 2-[2-[3-(Piperidinomethyl)phenoxy]ethyl]-1H-benzimidazole], for which the Kb on histamine H2 -receptor (setting [12]) is 20000 nM. Moreover, the Ki in data set [1] (setting [13]) is 3980 nM.

As to `c1cc(CN2CCCCC2)cc(OCCCc2nc3ccccc3[nH]2)c1` [Example 27, 2-[3-[3-(Piperidinomethyl)phenoxy]propyl]-1H-benzimidazole], the Kb on histamine H2 -receptor (setting [12]) was 316 nM. Besides, the Ki in data set [1] (setting [13]) is 100 nM.

Turning to `c1cc(CN2CCCCC2)cc(OCCCCc2nc3ccccc3[nH]2)c1` [Example 28, 2-[4-[3-(Piperidinomethyl)phenoxy]butyl]-1H-benzimidazole], the Kb at histamine H2 -receptor (setting [12]) was 126 nM. The Ki in data set [1] (setting [13]) is 39.8 nM.

Take `CN(C)CCCN1c2ccccc2CCc2ccccc21` [Imipramine]: the “molar ratio of compound in the brain to compound in the blood” value in data set [7] is listed as 3.5.

`CN/C(=N/CCSCc1nc[nH]c1C)NC#N` [cimetidine, reference compound]: the “antagonism of pial artery dilatation induced by histamine” value is reported as “antagonises the pial artery dilatation” in [8] and “failed to antagonise” in data set [5] (intravenous).

As to `O=C1NC(=O)C(c2ccccc2)(c2ccccc2)N1` [phenytoin sodium], in data set [9], the “antagonism of bicuculline convulsions, known drug” value is given as “antagonise”. Further, the “antagonism of leptazol (pentylenetetrazol) convulsions, known drug” value in data set [10] is “antagonise”. In data set [11], the “antagonism of maximal electroshock (MES) convulsions, known drug” value was “antagonise”.
